We go through 30 compounds from patent US9533983B2, “Antiplatelet agent” (Mitsubishi Tanabe Pharma Corporation, priority 2009, dated 2017).

Each structure is given as a SMILES string.

As usually defined, the IC50 is the concentration that gives 50% inhibition. A higher IC50 goes with weaker potency in that assay.

Assay [1] concerns Ristocetin-Induced Platelet Aggregation. The assay is described as follows: Platelet aggregation inhibitory activity: ristocetin-induced platelet aggregation in platelet rich plasma. Format: cell-based. The following applies: Cavia porcellus, guinea pig PRP. As for the experimental part:
(§1) A blood of a guinea pig was sampled by using a 1/10 volume of a 3.8% sodium citrate as a platelet aggregation inhibitor, and a platelet rich plasma (PRP) was separated by centrifuging the blood sample at 1100 rpm for 10 min. After fractionating the PRP in the upper layer, the lower layer was centrifuged at 3000 rpm for 10 min to fractionate the platelet poor plasma (PPP). To 100 μL of PRP, a 1 μL solution of each compound was added, and after still standing at 37° C. for 1 min, the mixture was stirred at 37° C. for 1 min by a stirrer. Then, 11 μL of collagen, ristocetin, or ADP was added thereto to induce the platelet aggregation. The platelet aggregation ability was measured by using the mCM hematolaser 313M (L-M-S Inc.). Based on the assumption that a light transmittance of PPP corresponds to a 100% coagulation value, an aggregation rate at each concentration of the compound was determined, then, an IC50 value was calculated therefrom.
[Platelet Aggregation Inhibitory Activities: Ristocetin-Induced Platelet Aggregation]

In assay [2] the test system is Collagen-Induced Platelet Aggregation. The assay is described as follows: Platelet aggregation inhibitory activity: collagen-induced platelet aggregation in platelet rich plasma. Format: cell-based. The following applies: Cavia porcellus, guinea pig PRP. As for the experimental part:
as §1
[Platelet Aggregation Inhibitory Activities: Collagen-Induced Platelet Aggregation]

For `COc1ccc(-n2c(-c3ccc(F)cn3)nc3cc(C(F)(F)F)ccc32)cn1` [Example 21, 2-(5-fluoropyridin-2-yl)-1-(6-methoxypyridin-3-yl)-5-(trifluoromethyl)-1H-benzimidazole], the IC50 is 390 nM in assay [1] and 130 nM in assay [2].
Taken in the same sequence, the figures for `COc1ccc(-n2c(-c3ccccn3)nc3cc(C4CC4)ccc32)cn1` [Example 27, 5-cyclopropyl-1-(6-methoxypyridin-3-yl)-2-pyridin-2-yl-1H-benzimidazole] were 170 nM and 190 nM.
Taken in the same sequence, the figures for `COc1ccc(-n2c(-c3ccccn3)nc3cc(OCC4CC4)ccc32)cn1` [Example 31, 5-(cyclopropylmethoxy)-1-(6-methoxypyridin-3-yl)-2-pyridin-2-yl-1H-benzimidazole] were 870 nM and 250 nM.
For `COc1ccc(-n2c(-c3ccc([N+](=O)[O-])cn3)nc3cc(C(F)(F)F)ccc32)nn1` [Example 53, 1-(6-methoxypyridazin-3-yl)-2-(5-nitropyridin-2-yl)-5-(trifluoromethyl)-1H-benzimidazole], in that order: 42 nM and 57 nM.
As to `COc1ccc(-n2c(-c3nccs3)nc3cc(C(F)(F)F)ccc32)nn1` [Example 54, 1-(6-methoxypyridazin-3-yl)-2-(1,3-thiazol-2-yl)-5-(trifluoromethyl)-1H-benzimidazole], the figures for the IC50 in assay [1] and in assay [2] were 100 nM and 190 nM, respectively.
Taken in the same sequence, the figures for `COc1ccc(-n2c(-c3ccccn3)nc3cc(C(F)(F)F)c(Cl)cc32)cn1` [Example 55, 6-chloro-1-(6-methoxypyridin-3-yl)-2-pyridin-2-yl-5-(trifluoromethyl)-1H-benzimidazole] were 60 nM and 84 nM.
Taken in the same sequence, the figures for `CCc1ccc(-c2nc3cc(C(F)(F)F)ccc3n2-c2ccc(OC)nn2)nc1` [Example 56, 2-(5-ethylpyridin-2-yl)-1-(6-methoxypyridazin-3-yl)-5-(trifluoromethyl)-1H-benzimidazole] were 28 nM and 47 nM.
As to `COc1ccc(-n2c(-c3cc(C)ccn3)nc3cc(C(F)(F)F)ccc32)nn1` [Example 58, 1-(6-methoxypyridazin-3-yl)-2-(4-methylpyridin-2-yl)-5-(trifluoromethyl)-1H-benzimidazole], the IC50 turned out to be 280 nM in assay [1] and 170 nM in assay [2].
With `CSc1ccc(-n2c(-c3ccccn3)nc3cc(C(F)(F)F)ccc32)nn1` [Example 67, 1-[6-(methylthio)pyridazin-3-yl]-2-pyridin-2-yl-5-(trifluoromethyl)-1H-benzimidazole], the figures for the IC50 in assay [1] and in assay [2] were 230 nM and 170 nM, respectively.
For `COc1ccc(-n2c(-c3cc(C)on3)nc3cc(C(F)(F)F)ccc32)nn1` [Example 72, 2-(5-methylisoxazol-3-yl)-1-(6-methoxypyridazin-3-yl)-5-(trifluoromethyl)-1H-benzimidazole], in that order: 130 nM and 180 nM.
For `COc1ccc(-n2c(-c3ccn(C)n3)nc3cc(C(F)(F)F)cnc32)cn1` [Example 73, 3-(6-methoxypyridin-3-yl)-2-(1-methyl-1H-pyrazol-3-yl)-6-(trifluoromethyl)-3H-imidazo[4,5-b]pyridine], in that order: 83 nM and 80 nM.
`COc1ccc(-n2c(-c3cc(Br)ccn3)nc3cc(C(F)(F)F)ccc32)nn1` [Example 75, 2-(4-bromopyridin-2-yl)-1-(6-methoxypyridazin-3-yl)-5-(trifluoromethyl)-1H-benzimidazole]: the IC50 in assay [1] came out at 380 nM; in assay [2] it was 200 nM.
For `COc1ccc(-n2c(-c3ncccc3C#N)nc3cc(C(F)(F)F)ccc32)nn1` [Example 81, 2-[1-(6-methoxypyridazin-3-yl)-5-(trifluoromethyl)-1H-benzimidazole-2-yl]nicotinonitrile], in that order: 500 nM and 220 nM.
Taken in the same sequence, the figures for `COc1ccc(-n2c(-c3cscn3)nc3cc(C(F)(F)F)ccc32)nn1` [Example 89, 1-(6-methoxypyridazin-3-yl)-2-(1,3-thiazol-4-yl)-5-(trifluoromethyl)-1H-benzimidazole] were 70 nM and 53 nM.
Taken in the same sequence, the figures for `COc1ccc(-n2c(-c3cnc(C)cn3)nc3cc(C(F)(F)F)ccc32)nn1` [Example 90, 1-(6-methoxypyridazin-3-yl)-2-(5-methylpyrazine-2-yl)-5-(trifluoromethyl)-1H-benzimidazole] were 20 nM and 60 nM.
For `COc1ccc(-n2c(-c3csc(C)n3)nc3cc(C(F)(F)F)ccc32)nn1` [Example 94, 1-(6-methoxypyridazin-3-yl)-2-(2-methyl-1,3-thiazol-4-yl)-5-(trifluoromethyl)-1H-benzimidazole], the 50% inhibitory concentration (IC50) amounted to 100 nM in assay [1] and 190 nM in assay [2].
For `COc1ccc(-n2c(-c3cocn3)nc3cc(C(F)(F)F)cnc32)cn1` [Example 107, 3-(6-methoxypyridin-3-yl)-2-(1,3-oxazol-4-yl)-6-(trifluoromethyl)-3H-imidazo[4,5-b]pyridine], in that order: 35 nM and 66 nM.
For `COc1ccc(-n2c(-c3cc(C)on3)nc3cc(C(F)(F)F)cnc32)cn1` [Example 108, 3-(6-methoxypyridin-3-yl)-2-(5-methylisoxazol-3-yl)-6-(trifluoromethyl)-3H-imidazo[4,5-b]pyridine], in that order: 100 nM and 210 nM.
In the case of `COc1ccc(-n2c(-c3cscn3)nc3cc(C(F)(F)F)cnc32)cn1` [Example 109, 3-(6-methoxypyridin-3-yl)-2-(1,3-thiazol-4-yl)-6-(trifluoromethyl)-3H-imidazo[4,5-b]pyridine], the IC50 amounted to 23 nM in assay [1] and 95 nM in assay [2].
For `COc1ccc(-n2c(-c3csc(C)n3)nc3cc(C(F)(F)F)cnc32)cn1` [Example 110, 3-(6-methoxypyridin-3-yl)-2-(2-methyl-1,3-thiazol-4-yl)-6-(trifluoromethyl)-3H-imidazo[4,5-b]pyridine], in that order: 120 nM and 130 nM.
Taken in the same sequence, the figures for `COc1ccc(-n2c(-c3coc(C)n3)nc3cc(C(F)(F)F)cnc32)cn1` [Example 122, 3-(6-methoxypyridin-3-yl)-2-(2-methyl-1,3-oxazol-4-yl)-6-(trifluoromethyl)-3H-imidazo[4,5-b]pyridine] were 40 nM and 34 nM.
As to `COc1cnc(-n2c(-c3ccccn3)nc3cc(C(F)(F)F)cnc32)cn1` [Example 125, 3-(5-methoxypyrazine-2-yl)-2-pyridin-2-yl-6-(trifluoromethyl)-3H-imidazo[4,5-b]pyridine], the IC50 in assay [1] is 27 nM; in assay [2], 29 nM.
For the compound `COc1ccc(-n2c(-c3ncoc3C)nc3cc(C(F)(F)F)cnc32)cn1` [Example 126, 3-(6-methoxypyridin-3-yl)-2-(5-methyl-1,3-oxazol-4-yl)-6-(trifluoromethyl)-3H-imidazo[4,5-b]pyridine], the IC50 is 90 nM in assay [1] and 194 nM in assay [2].
For `Cc1ccc(-n2c(-c3ccc(C#N)cn3)nc3cc(C(F)(F)F)cnc32)cn1` [Example 130, 6-[3-(6-methylpyridin-3-yl)-6-(trifluoromethyl)-3H-imidazo[4,5-b]pyridin-2-yl]nicotinonitrile], in that order: 170 nM and 177 nM.
Taken in the same sequence, the figures for `COc1ccc(-n2c(-c3coc(C)n3)nc3cc(C(F)(F)F)ccc32)nn1` [Example 139, 1-(6-methoxypyridazin-3-yl)-2-(2-methyl-1,3-oxazol-4-yl)-5-(trifluoromethyl)-1H-benzimidazole] were 86 nM and 60 nM.
For `COc1cnc(-n2c(-c3ccc(F)cn3)nc3cc(C(F)(F)F)cnc32)cn1` [Example 144, 2-(5-fluoropyridin-2-yl)-3-(5-methoxypyrazine-2-yl)-6-(trifluoromethyl)-3H-imidazo[4,5-b]pyridine], in that order: 22 nM and 30 nM.
For `COc1ccc(-n2c(-c3ccccn3)nc3cc(OC(C)C)cnc32)cn1` [Example 145, 6-isopropoxy-3-(6-methoxypyridin-3-yl)-2-pyridin-2-yl-3H-imidazo[4,5-b]pyridine], the results for the concentration for half-maximal inhibition (IC50) in assay [1] and in assay [2] were 106 nM and 74 nM, respectively.
For `COc1ccc(-n2c(-c3ccccn3)nc3cc(OC(F)F)cnc32)cn1` [Example 146, 6-(difluoromethoxy)-3-(6-methoxypyridin-3-yl)-2-pyridin-2-yl-3H-imidazo[4,5-b]pyridine], the IC50 in assay [1] stood at 66 nM; in assay [2] it was 78 nM.
For the compound `CNc1ccc(-n2c(-c3ccc(C#N)cn3)nc3cc(C(F)(F)F)cnc32)cn1` [Example 150, 6-{3-[6-(methylamino)pyridin-3-yl]-6-(trifluoromethyl)-3H-imidazo[4,5-b]pyridin-2-yl]nicotinonitrile], the IC50 in assay [1] and in assay [2] was 205 nM each time.
`COc1cnc(-n2c(-c3cocn3)nc3cc(C(F)(F)F)cnc32)cn1` [Example 151, 3-(5-methoxypyrazine-2-yl)-2-(1,3-oxazol-4-yl)-6-(trifluoromethyl)-3H-imidazo[4,5-b]pyridine]: the 50% inhibitory concentration (IC50) in assay [1] and in assay [2] was 24 nM in each case.
